Experimental data taken from the NIST ThermoML archive (doi:10.1021/je9006597).

How the values were obtained:
[1] = xn = mol fraction of the nth substance listed; conditions: 101 kPa, Liquid; for speed of sound: Pulse-echo method
[2] = 101 kPa, Liquid; for speed of sound: Pulse-echo method

COC(=O)c1ccccc1 [methyl benzoate] + CCCCCCC
[1]
Conditions	mass density, 303.15 K [kg/m3]	mass density, 308.15 K [kg/m3]	mass density, 313.15 K [kg/m3]	speed of sound, 303.15 K [m/s]	speed of sound, 308.15 K [m/s]	speed of sound, 313.15 K [m/s]	viscosity, 303.15 K [mPa·s]	viscosity, 308.15 K [mPa·s]	viscosity, 313.15 K [mPa·s]
x1 = 0.1154	715.5	711.3	708.1	1128	1108	1088	0.413	0.38	0.35
x1 = 0.2273	756.4	752.4	749.1	1148	1128	1108	0.467	0.43	0.401
x1 = 0.335	797.1	793.1	789.8	1168	1148	1128	0.533	0.494	0.458
x1 = 0.439	837.7	833.9	830.5	1192	1172	1152	0.627	0.575	0.529
x1 = 0.5404	878.6	874.8	871.3	1220	1196	1180	0.723	0.666	0.615
x1 = 0.6365	918.3	914.7	911.1	1248	1228	1212	0.84	0.781	0.728
x1 = 0.7324	959	955.3	951.7	1276	1260	1248	0.99	0.904	0.849
x1 = 0.8252	999.4	995.7	992.1	1308	1296	1284	1.172	1.068	0.982
x1 = 0.9133	1038.7	1034.8	1030.9	1348	1336	1324	1.404	1.284	1.15
x1 = 1	1078.3	1074.4	1070.3	1380	1364	1348	1.667	1.514	1.376

COC(=O)c1ccccc1 [methyl benzoate] + CCCCCCCC
[1]
Conditions	mass density, 303.15 K [kg/m3]	mass density, 308.15 K [kg/m3]	mass density, 313.15 K [kg/m3]	speed of sound, 303.15 K [m/s]	speed of sound, 308.15 K [m/s]	speed of sound, 313.15 K [m/s]	viscosity, 303.15 K [mPa·s]	viscosity, 308.15 K [mPa·s]	viscosity, 313.15 K [mPa·s]
x1 = 0.129	732.2	728.8	725.3	1160	1140	1124	0.522	0.484	0.447
x1 = 0.2456	770	766.4	762.9	1180	1160	1144	0.576	0.529	0.492
x1 = 0.3586	809.2	805.5	801.8	1200	1180	1164	0.644	0.596	0.556
x1 = 0.4655	848.4	844.5	840.7	1220	1200	1184	0.727	0.668	0.621
x1 = 0.5672	887.5	883.6	879.7	1240	1224	1204	0.832	0.762	0.705
x1 = 0.662	925.8	921.9	918	1260	1248	1228	0.936	0.857	0.788
x1 = 0.7528	964.3	960.3	956.5	1284	1272	1252	1.084	0.99	0.913
x1 = 0.8382	1002.3	998.1	994.3	1308	1300	1280	1.245	1.125	1.033
x1 = 0.9213	1040.6	1036.4	1032.4	1340	1328	1308	1.434	1.303	1.193
x1 = 1	1078.3	1074.4	1070.3	1380	1364	1348	1.667	1.514	1.376

CCCCCCCC [octane]
[2]
Conditions	mass density [kg/m3]	speed of sound [m/s]	viscosity [mPa·s]
303.15 K	693.9	1148	0.491
308.15 K	690.4	1132	0.45
313.15 K	687	1112	0.415

CCCCCCCC [octane] + COC(=O)c1ccccc1
[1], x2 = 0
Conditions	mass density [kg/m3]	speed of sound [m/s]	viscosity [mPa·s]
303.15 K	693.9	1148	0.491
308.15 K	690.4	1132	0.45
313.15 K	687	1112	0.415
